Data from patent US8912209B2, “Rock inhibitors” (Amakem NV, priority 2010, dated 2014).

What was measured:
ROCK II = target: T1, ROCK II (Homo sapiens, UniProt O75116); experiment: ROCK II kinase inhibition, Method 1 Proqinase setup (33P radioisotopic protein kinase assay); format: biochemical; settings: 33P radioisotopic assay, 1 μM ATP, read-out: IC50 Meth. 1
T1 construct: purchased Proqinase
Description: A ^33P radioisotopic protein kinase assay is used to determine the IC50 for inhibiting ROCK II. A final 50 μl reaction cocktail, containing 60 mM HEPES-NaOH (pH 7.5), 3 mM MgCl2, 3 mM MnCl2, 3 μM Na-orthovanadate, 1.2 mM DTT, 1 μM ATP, 50 μg/ml PEG20.000, 1% (v/v) DMSO, 1 μM ATP (approx. 3×10^5 cpm ^33P-γ-ATP), the substrate (Substrate: S6 peptide—2000 ng/well) and recombinant protein kinase (0.5 nM-2.5 ng/well) is mixed on a shaker and incubated at 30° C. for 80 minutes. The reaction is stopped by the addition of 50 μl of a 2% solution of H3PO4 and mixed on a shaker. After washing twice with 200 μl of a 0.9% solution of NaCl, the dry plate is counted.

ROCKα/ROCKII = target: T2, ROCKα/ROCKII (Homo sapiens, UniProt O75116); experiment: ROCK inhibition, Method 2 fluorescence polarization (FP) assay, ROCK IMAP Kit; format: biochemical; settings: 10 μM ATP, read-out: IC50 Meth. 2
T2 construct: purchased Upstate Biotechnology 14-451
Description: The inhibition assays were performed with a fluorescence polarization (FP) assay using the commercially available ROCK IMAP Kit from Molecular Devices (Product ID. No. R8093), essentially in accordance with the protocol supplied by the manufacturer. […] The enzyme mix ROCKα/ROCKII was obtained from Upstate Biotechnology (Product ID No 14-451).
In summary, all compounds were screened in the wells of a 384 well plate for enzymatic inhibition with concentrations varying from 100 μM to 0.3 nM using a stepwise 3 (or 2)-fold dilution.
To perform the assay, 1 μl of a solution of the compound to be tested in DMSO (at each concentration) was added to 2 μl of a solution of the enzyme in 10 mM Tris-HCl, 10 mM MgCl2, 0.1% BSA, 0.05% NaN3, pH 7,2. The final concentration of the enzyme was 2.6 nM.
After incubating for 30 minutes at RT, 2 μl of a mixture of ATP and the protein substrate in 10 mM Tris-HCl, 10 mM MgCl2, 0.1% BSA, 0.05% NaN3, pH 7.2 was added. The final concentration of the ATP was 10 μM and final concentration of protein substrate was 0.2 μM.
After incubating for 60 minutes at RT, 12 μl of the IMAP Binding Solution (mix of the IMAP Binding Buffer A (1×) and the IMAP Binding Reagent (from the ROCK IMAP kit)) was added.
The mixture thus obtained (total volume: 17 μl) was incubated for 60 minutes at RT, upon which the fluorescence polarization was measured using an automated plate reader (Perkin Elmer, Model Envision 2100-0010 HTS) with FP filters: excitation filter FITC FP 480 and emission filters FITC FP P-pol 535 and FITC FP S-pol 535 (Perkin-Elmer). The results were fitted to a curve using the XL-Fit algorithm and IC50 values were calculated for each fitted curve, again using the XL-Fit algorithm.

T2 sequence (O75116 whole entry): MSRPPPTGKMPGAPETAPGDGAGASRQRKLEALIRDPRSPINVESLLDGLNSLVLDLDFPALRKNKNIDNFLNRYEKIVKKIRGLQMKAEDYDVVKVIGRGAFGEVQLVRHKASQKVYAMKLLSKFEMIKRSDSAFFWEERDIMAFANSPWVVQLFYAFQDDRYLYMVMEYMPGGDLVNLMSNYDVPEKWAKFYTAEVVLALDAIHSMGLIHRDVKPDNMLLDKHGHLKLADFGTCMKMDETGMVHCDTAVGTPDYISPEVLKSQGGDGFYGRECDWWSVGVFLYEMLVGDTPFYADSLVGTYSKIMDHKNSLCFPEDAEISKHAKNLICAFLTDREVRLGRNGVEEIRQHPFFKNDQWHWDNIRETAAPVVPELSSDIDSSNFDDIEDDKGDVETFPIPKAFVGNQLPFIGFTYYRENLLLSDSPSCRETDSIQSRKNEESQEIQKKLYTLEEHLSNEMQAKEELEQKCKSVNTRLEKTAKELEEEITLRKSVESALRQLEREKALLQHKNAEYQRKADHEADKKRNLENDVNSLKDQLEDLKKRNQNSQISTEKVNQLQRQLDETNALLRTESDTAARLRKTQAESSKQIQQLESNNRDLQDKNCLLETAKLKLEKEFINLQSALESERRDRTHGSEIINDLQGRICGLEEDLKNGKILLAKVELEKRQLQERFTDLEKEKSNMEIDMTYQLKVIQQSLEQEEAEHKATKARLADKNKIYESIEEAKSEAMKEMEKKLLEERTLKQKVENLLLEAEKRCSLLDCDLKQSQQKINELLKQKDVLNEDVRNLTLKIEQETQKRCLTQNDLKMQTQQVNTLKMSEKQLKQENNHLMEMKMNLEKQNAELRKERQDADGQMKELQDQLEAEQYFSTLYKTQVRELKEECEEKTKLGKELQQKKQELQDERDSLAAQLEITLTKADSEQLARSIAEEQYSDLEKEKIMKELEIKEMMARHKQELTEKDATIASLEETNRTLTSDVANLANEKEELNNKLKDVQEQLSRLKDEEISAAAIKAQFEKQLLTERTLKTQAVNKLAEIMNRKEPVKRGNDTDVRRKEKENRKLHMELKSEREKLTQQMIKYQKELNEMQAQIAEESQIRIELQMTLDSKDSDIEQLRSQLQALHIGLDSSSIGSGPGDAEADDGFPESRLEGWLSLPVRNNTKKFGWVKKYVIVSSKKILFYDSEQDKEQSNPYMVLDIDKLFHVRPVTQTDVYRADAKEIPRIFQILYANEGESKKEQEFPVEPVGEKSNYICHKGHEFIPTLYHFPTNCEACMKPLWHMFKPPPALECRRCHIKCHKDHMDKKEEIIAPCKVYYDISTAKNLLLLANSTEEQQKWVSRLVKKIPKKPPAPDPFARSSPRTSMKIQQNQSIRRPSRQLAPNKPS
T1 sequence (O75116 whole entry): as above

| Structure (SMILES) | IC50 (ROCK II) | IC50 (ROCKα/ROCKII) |
| --- | --- | --- |
| NCc1ccc(C(=O)Nc2ccncc2)cc1-c1cccc(C(=O)Oc2ccccc2F)c1 [Compound 53, 2′-Aminomethyl-5′-(pyridin-4-ylcarbamoyl)-biphenyl-3-carboxylic acid 2-fluoro-phenyl ester] | 0.1 to 1 µM | – |
| CC(N)c1ccc(C(=O)Nc2ccncc2)cc1-c1cccc(C(=O)OCC2CCc3ccccc3C2)c1 (stereo not drawn) [Compound 94, 2′-(1-Amino-ethyl)-5′-(pyridin-4-ylcarbamoyl)-biphenyl-3-carboxylic acid 1,2,3,4-tetrahydro-naphthalen-2-ylmethyl ester] | – | 0.1 to 1 µM |
| CCOC(=O)c1cccc(-c2cc(C(=O)Nc3ccncc3F)ccc2C(C)N)c1 (stereo not drawn) [Compound 9, 2′-(1-Amino-ethyl)-5′-(3-fluoro-pyridin-4-ylcarbamoyl)-biphenyl-3-carboxylic acid ethyl ester] | – | < 0.1 µM |
| CCCCCOC(=O)c1cccc(-c2cc(C(=O)Nc3ccncc3)ccc2C(C)N)c1 (stereo not drawn) [Compound 16, 2′-(1-Amino-ethyl)-5′-(pyridin-4-ylcarbamoyl)-biphenyl-3-carboxylic acid pentyl ester] | – | 0.1 to 1 µM |
| CC(C)OC(=O)c1cccc(-c2cc(C(=O)Nc3ccncc3)ccc2C(C)N)c1 (stereo not drawn) [Compound 27, 2′-(1-Amino-ethyl)-5′-(pyridin-4-ylcarbamoyl)-biphenyl-3-carboxylic acid isopropyl ester] | – | < 0.1 µM |
| CC(N)c1ccc(C(=O)Nc2ccncc2)cc1-c1cccc(C(=O)OCC(F)(F)F)c1 (stereo not drawn) [Compound 63, 2′-(1-Amino-ethyl)-5′-(pyridin-4-ylcarbamoyl)-biphenyl-3-carboxylic acid 2,2,2-trifluoro-ethyl ester] | – | 0.1 to 1 µM |
| COc1cc(OC)cc(OC(=O)c2cccc(-c3cc(C(=O)Nc4ccncc4)ccc3C(C)N)c2)c1 (stereo not drawn) [Compound 75, 2′-(1-Amino-ethyl)-5′-(pyridin-4-ylcarbamoyl)-biphenyl-3-carboxylic acid 3,5-dimethoxy-phenyl ester] | – | < 0.1 µM |
| CCCCCCCCCCCCOC(=O)c1cccc(-c2cc(C(=O)Nc3ccncc3)ccc2C(C)N)c1 (stereo not drawn) [Compound 22, 2′-(1-Amino-ethyl)-5′-(pyridin-4-ylcarbamoyl)-biphenyl-3-carboxylic acid dodecyl ester] | – | 1 to 10 µM |
| CC(N)c1ccc(C(=O)Nc2ccncc2)cc1-c1cccc(C(=O)OCCN2C(=O)c3ccccc3C2=O)c1 (stereo not drawn) [Compound 95, 2′-(1-Amino-ethyl)-5′-(pyridin-4-ylcarbamoyl)-biphenyl-3-carboxylic acid 2-(1,3-dioxo-1,3-dihydro-isoindol-2-yl)-ethyl ester] | – | 0.1 to 1 µM |
| CC(N)c1ccc(C(=O)Nc2ccncc2)cc1-c1cccc(C(=O)OCc2ccc(Br)cc2)c1 (stereo not drawn) [Compound 84, 2′-(1-Amino-ethyl)-5′-(pyridin-4-ylcarbamoyl)-biphenyl-3-carboxylic acid 4-bromo-benzyl ester] | – | 0.1 to 1 µM |
| CC(C)COC(=O)c1cccc(-c2cc(C(=O)Nc3ccncc3)ccc2C(C)N)c1 (stereo not drawn) [Compound 40, 2′-(1-Amino-ethyl)-5′-(pyridin-4-ylcarbamoyl)-biphenyl-3-carboxylic acid isobutyl ester] | – | < 0.1 µM |
| CC(N)c1ccc(C(=O)Nc2ccncc2)cc1-c1cccc(C(=O)OCC(Cl)(Cl)Cl)c1 (stereo not drawn) [Compound 64, 2′-(1-Amino-ethyl)-5′-(pyridin-4-ylcarbamoyl)-biphenyl-3-carboxylic acid 2,2,2-trichloro-ethyl ester] | – | < 0.1 µM |
| COc1cc(OC)cc(OC(=O)c2cccc(-c3cc(C(=O)Nc4ccncc4F)ccc3C(C)N)c2)c1 (stereo not drawn) [Compound 76, 2′-(1-Amino-ethyl)-5′-(3-fluoro-pyridin-4-ylcarbamoyl)-biphenyl-3-carboxylic acid 3,5-dimethoxy-phenyl ester] | – | 0.1 to 1 µM |
| COC(=O)c1cccc(-c2cc(C(=O)Nc3ccncc3)ccc2C(C)N)c1 (stereo not drawn) [Compound 4, 2′-(1-Amino-ethyl)-5′-(pyridin-4-ylcarbamoyl)-biphenyl-3-carboxylic acid methyl ester] | – | < 0.1 µM |

Further lines, results first:

| IC50 (ROCK II) | IC50 (ROCKα/ROCKII) | Structure (SMILES) |
| --- | --- | --- |
| 1 to 10 µM | – | COC(=O)C1CCCCN1C(=O)c1cccc(-c2cc(C(=O)Nc3ccncc3)ccc2CN)c1 (stereo not drawn) [Compound 122, 1-[2′-Aminomethyl-5′-(pyridin-4-ylcarbamoyl)-biphenyl-3-carbonyl]-piperidine-2-carboxylic acid methyl ester] |
| – | 0.1 to 1 µM | CC(N)c1ccc(C(=O)Nc2ccncc2)cc1-c1cccc(C(=O)OCc2ccccc2[N+](=O)[O-])c1 (stereo not drawn) [Compound 85, 2′-(1-Amino-ethyl)-5′-(pyridin-4-ylcarbamoyl)-biphenyl-3-carboxylic acid 2-nitro-benzyl ester] |
| – | < 0.1 µM | CC(N)c1ccc(C(=O)Nc2ccncc2)cc1-c1cccc(OCCSC2CCOC2=O)c1 (stereo not drawn) [Compound 130, 6-(1-Amino-ethyl)-3′-[2-(2-oxo-tetrahydro-furan-3-ylsulfanyl)-ethoxy]-biphenyl-3-carboxylylic acid pyridin-4-ylamide] |
| – | 0.1 to 1 µM | CCCCCCCOC(=O)c1cccc(-c2cc(C(=O)Nc3ccncc3)ccc2C(C)N)c1 (stereo not drawn) [Compound 18, 2′-(1-Amino-ethyl)-5′-(pyridin-4-ylcarbamoyl)-biphenyl-3-carboxylic acid heptyl ester] |
| – | 1 to 10 µM | CCCCCCCCCCCCCOC(=O)c1cccc(-c2cc(C(=O)Nc3ccncc3)ccc2C(C)N)c1 (stereo not drawn) [Compound 23, 2′-(1-Amino-ethyl)-5′-(pyridin-4-ylcarbamoyl)-biphenyl-3-carboxylic acid tridecyl ester] |
| – | 0.1 to 1 µM | CC(N)c1ccc(C(=O)Nc2ccncc2F)cc1-c1cccc(OCCSC2CCOC2=O)c1 (stereo not drawn) [Compound 177] |
| – | < 0.1 µM | CC(N)c1ccc(C(=O)Nc2ccncc2)cc1-c1cccc(C(=O)OCC(=O)c2ccc(Br)cc2)c1 (stereo not drawn) [Compound 96, 2′-(1-Amino-ethyl)-5′-(pyridin-4-ylcarbamoyl)-biphenyl-3-carboxylic acid 2-(4-bromo-phenyl)-2-oxo-ethyl ester] |
| – | < 0.1 µM | CC(N)c1ccc(C(=O)Nc2ccncc2)cc1-c1cccc(C(=O)Oc2ccc3c(c2)OC(=O)CC3)c1 (stereo not drawn) [Compound 176] |
| – | < 0.1 µM | CC(N)c1ccc(C(=O)Nc2ccncc2)cc1-c1cccc(C(=O)SC(C)(C)C)c1 (stereo not drawn) [Compound 101, 2′-(1-Amino-ethyl)-5′-(pyridin-4-ylcarbamoyl)-biphenyl-3-carbothioic acid S-tert-butyl ester] |
| – | 0.1 to 1 µM | COc1cc(OC(=O)c2cccc(-c3cc(C(=O)Nc4ccncc4)ccc3C(C)N)c2)cc(OC)c1OC (stereo not drawn) [Compound 80, 2′-(1-Amino-ethyl)-5′-(pyridin-4-ylcarbamoyl)-biphenyl-3-carboxylic acid 3,4,5-trimethoxy-phenyl ester] |
| – | < 0.1 µM | CC(N)c1ccc(C(=O)Nc2ccncc2F)cc1-c1cccc(C(=O)OCCCO)c1 (stereo not drawn) [Compound 68, 2′-(1-Amino-ethyl)-5′-(3-fluoro-pyridin-4-ylcarbamoyl)-biphenyl-3-carboxylic acid 3-hydroxy-propyl ester] |
| – | < 0.1 µM | Cc1ccc(OC(=O)c2cccc(-c3cc(C(=O)Nc4ccncc4)ccc3C(C)N)c2)cc1 (stereo not drawn) [Compound 73, 2′-(1-Amino-ethyl)-5′-(pyridin-4-ylcarbamoyl)-biphenyl-3-carboxylic acid p-tolyl ester] |
| – | < 0.1 µM | COc1cc(OC(=O)c2cccc(-c3cc(C(=O)Nc4ccncc4F)ccc3C(C)N)c2)cc(OC)c1OC (stereo not drawn) [Compound 79, 2′-(1-Amino-ethyl)-5′-(3-fluoro-pyridin-4-ylcarbamoyl)-biphenyl-3-carboxylic acid 3,4,5-trimethoxy phenylester] |
| – | < 0.1 µM | CC(N)c1ccc(C(=O)Nc2ccncc2)cc1-c1cccc(NC(=O)CC2CC(=O)Oc3ccccc32)c1 (stereo not drawn) [Compound 155, 6-(1-Amino-ethyl)-3′-[2-(2-oxo-chroman-4-yl)-acetylamino]-biphenyl-3-carboxylic acid pyridin-4-ylamide] |
| – | 0.1 to 1 µM | CC(N)c1ccc(C(=O)Nc2ccncc2)cc1-c1cccc(C(=O)OCCc2ccsc2)c1 (stereo not drawn) [Compound 92, 2′-(1-Amino-ethyl)-5′-(pyridin-4-ylcarbamoyl)-biphenyl-3-carboxylic acid 2-thiophen-3-yl-ethyl ester] |
| – | 1 to 10 µM | CCCCCCCCCCCOC(=O)c1cccc(-c2cc(C(=O)Nc3ccncc3)ccc2C(C)N)c1 (stereo not drawn) [Compound 21, 2′-(1-Amino-ethyl)-5′-(pyridin-4-ylcarbamoyl)-biphenyl-3-carboxylic acid undecyl ester] |
